Results as given in US4965280A, “Antifungal carbinols” (E. I. Du Pont de Nemours and Company, priority 1989, dated 1990).
In brackets after ≈: the same amount, converted by molar mass. Read-outs that look alike come from different tables or passages of the source.

Tests used:
[1] = tested on: Candida albicans ATCC 11651; test: In vivo systemic Candida infection in mice, primary assay; design: species or system Candida albicans; CF-1 female mice; details: Candida albicans, 150 mg/kg per day, read-out: % Survival
Procedure, shortened: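 CF-1 female mice (20 g, 10 per group) were infected IV with 0.2 ml of 1×10^7/ml C. albicans ATCC 11651, then given test compound subcutaneously at 50 or 150 mg/kg/day at 1 and 6 h post-infection and once daily for three more days. Survival was followed for 21 days against infected untreated mice; ≥70% protection at 14 days was scored active.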

Venturia inaequalis = test: Example A apple scab; type: in vivo; details: read-out: disease control rating, Ex. A
Procedure, shortened: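 Test compounds were dissolved in acetone (6% of final volume) and suspended at 100 or 20 ppm in purified water containing 250 ppm of the surfactant TREM 014 (polyhydric alcohol esters). Apple seedlings were sprayed with this suspension to the point of run-off.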

[2] = tested on: Cercosporidium personatum; test: Example B Peanut Late Leafspot; type: in vivo; details: Nothopassalora personata, read-out: disease control rating, Ex. B
Procedure, shortened: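 Compounds were dissolved in acetone (6% of final volume) and suspended at 100 or 20 ppm in purified water containing 250 ppm TREM 014 surfactant (polyhydric alcohol esters). The suspension was sprayed to run-off on peanut seedlings.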

Botrytis cinerea = test: Example C bean grey mold; type: in vivo; details: Botrytis cinerea, 24 h, read-out: disease control rating, Ex. C
Procedure, shortened: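 Test compounds were taken up in acetone (6% of final volume) and suspended at 100 or 20 ppm in purified water containing 250 ppm TREM 014 surfactant (polyhydric alcohol esters). Broad bean seedlings were sprayed with this suspension until run-off.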

[3] = tested on: Erysiphe graminis f. sp. tritici; test: Example D wheat powdery mildew; type: in vivo; details: Blumeria graminis, 144 h, read-out: disease control rating, Ex. D
Procedure, shortened: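 Compounds were dissolved in acetone (6% of final volume), then suspended at 100 or 20 ppm in purified water containing 250 ppm TREM 014 surfactant. Wheat seedlings were sprayed with this suspension to run-off.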

Pyricularia oryzae = test: whole plant or invertebrate; type: in vivo; details: Pyricularia oryzae, 120 h; for pest or weed control at 20 ppm: read-out: disease control rating, Ex. E, 20 PPM; for pest or weed control at 100 ppm: read-out: disease control rating, Ex. E, 100 PPM
Rhizoctonia solani [4] = test: Example F rice sheath blight; type: in vivo; details: Rhizoctonia solani, 144 h, read-out: disease control rating, Ex. F
Procedure, shortened: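 Compounds, dissolved in acetone at 6% of final volume, were suspended at 100 or 20 ppm in purified water with 250 ppm polyhydric alcohol ester surfactant (TREM 014). Rice seedlings were sprayed with this suspension to run-off.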

Puccinia recondita = test: Example G wheat leaf rust; type: in vivo; details: read-out: disease control rating, Ex. G
Phytophthora infestans = test: whole plant or invertebrate; type: in vivo; details: Phytophthora infestans, in Solanum lycopersicum, read-out: disease control rating, Ex. H, 100 PPM
Plasmorpara viticola = test: Example I grape downy mildew; type: in vivo; details: read-out: disease control rating, Ex. I
Procedure, shortened: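 Applied as a foliar spray to run-off on grape seedlings, the compounds were formulated at 100 or 20 ppm in water containing 250 ppm TREM 014, with acetone making up 6% of the volume.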

Pythium aphanadermatum = test: Example J cucumber damping off; type: in vivo; details: Pythium, 336 h; 5 kg/ha; read-out: disease control rating, Ex. J
Procedure: […] Seeds and soil were then inoculated with a mixture of sand, cereal and mycelium of the fungus Pythium aphanadermatum, causal agent of cucumber damping off, and incubated in a growth chamber at 30° C. for 14 days. Disease ratings were then made.

Rhizoctonia solani [5] = test: Example K cotton blight; type: in vivo; details: 336 h, 5 kg/ha, read-out: disease control rating, Ex. K
Procedure: […] Seeds and soil were then inoculated with a mixture of sand, cereal and mycelium of the fungus Rhizoctonia solani, causal agent of cotton blight, and incubated in a growth chamber at 30° C. for 14 days. Disease ratings were then made.

Sclerotium rolfsii = test: Example M southern blight; type: in vivo; details: Agroathelia rolfsii, 336 h; 5 kg/ha; read-out: disease control rating, Ex. M
Procedure: […] Seeds and soil were then inoculated with a mixture of sand, cereal and mycelium of the fungus Sclerotium rolfsii, causal agent of sourthern blight, and incubated in a growth chamber at 30° C. for 14 days. Disease ratings were then made.

[6] = tested on: Candida albicans ATCC 11651; test: In vitro antifungal MIC, microtiter broth dilution; details: Candida albicans, ATCC11651, 24 h, read-out: MIC values, C. albicans, 30°, 24 hours
[7] = tested on: Aspergillus fumigatus ATCC 28214; test: In vitro antifungal MIC, microtiter broth dilution; details: Aspergillus fumigatus, ATCC28214, 24 h, read-out: MIC values, A. fumigatus, 30°, 24 hours

C=C(c1cccc(F)c1)C(O)(Cn1cncn1)c1ccc(Cl)cc1Cl (stereo not shown) [Example 16, 2-(2,4-Dichlorophenyl)-3-(3-fluorophenyl)-1-(1H-1,2,4-triazol-1-yl)-3-buten-2-ol]
responders at 150 mg/kg ([1]; ATCC11651, 168 h, day 7): 100% | responders at 150 mg/kg ([1]; ATCC11651, 336 h, day 14): 100% | responders at 150 mg/kg ([1]; ATCC11651, 504 h, day 21): 100% | pest or weed control at 20 ppm (Venturia inaequalis): 74% | pest or weed control at 20 ppm [2]: 99% | pest or weed control at 20 ppm (Botrytis cinerea): 27% | pest or weed control at 100 ppm (Botrytis cinerea): 46% | pest or weed control at 20 ppm [3]: 67% | pest or weed control at 20 ppm (Pyricularia oryzae): 0% | pest or weed control at 100 ppm (Pyricularia oryzae): 0% | pest or weed control at 20 ppm (Rhizoctonia solani [4]): 0% | pest or weed control at 100 ppm (Rhizoctonia solani [4]): 0% | pest or weed control at 20 ppm (Puccinia recondita): 100% | pest or weed control at 100 ppm (Phytophthora infestans): 0% | pest or weed control at 100 ppm (Plasmorpara viticola): 23% | pest or weed control at 5000 g/ha (Pythium aphanadermatum): 0% | pest or weed control at 5000 g/ha (Rhizoctonia solani [5]): 0% | pest or weed control at 5000 g/ha (Sclerotium rolfsii): 0% | MIC [6]: 0.03 µg/mL (≈ 0.0793 µM) | MIC [7]: 6.3 µg/mL (≈ 16.7 µM)

C=C(c1cccc(F)c1)C(O)(Cn1cncn1)c1ccc(Cl)cc1 (stereo not shown) [Example 17]
responders at 150 mg/kg ([1]; ATCC11651, 168 h, day 7): 100% | responders at 150 mg/kg ([1]; ATCC11651, 336 h, day 14): 90% | responders at 150 mg/kg ([1]; ATCC11651, 504 h, day 21): 70% | pest or weed control at 20 ppm (Venturia inaequalis): 80% | pest or weed control at 20 ppm [2]: 100% | pest or weed control at 20 ppm (Botrytis cinerea): 57% | pest or weed control at 100 ppm (Botrytis cinerea): 89% | pest or weed control at 20 ppm [3]: 95% | pest or weed control at 20 ppm (Pyricularia oryzae): 0% | pest or weed control at 100 ppm (Pyricularia oryzae): 0% | pest or weed control at 20 ppm (Rhizoctonia solani [4]): 0% | pest or weed control at 100 ppm (Rhizoctonia solani [4]): 81% | pest or weed control at 20 ppm (Puccinia recondita): 100% | pest or weed control at 100 ppm (Phytophthora infestans): 0% | pest or weed control at 100 ppm (Plasmorpara viticola): 42% | pest or weed control at 5000 g/ha (Pythium aphanadermatum): 0% | pest or weed control at 5000 g/ha (Rhizoctonia solani [5]): 0% | pest or weed control at 5000 g/ha (Sclerotium rolfsii): 0% | MIC [6]: 0.03 µg/mL (≈ 0.0873 µM) | MIC [7]: 12.5 µg/mL (≈ 36.4 µM)

C=C(c1ccccc1Cl)C(O)(Cn1cncn1)c1ccccc1F (stereo not shown) [Example 620]
responders at 150 mg/kg ([1]; ATCC11651, 168 h, day 7): 100% | responders at 150 mg/kg ([1]; ATCC11651, 336 h, day 14): 100% | responders at 150 mg/kg ([1]; ATCC11651, 504 h, day 21): 90% | pest or weed control at 100 ppm (Venturia inaequalis): 100% | pest or weed control at 100 ppm [2]: 100% | pest or weed control at 100 ppm (Botrytis cinerea): 96% | pest or weed control at 100 ppm [3]: 98% | pest or weed control at 100 ppm (Pyricularia oryzae): 51% | pest or weed control at 100 ppm (Rhizoctonia solani [4]): 100% | pest or weed control at 100 ppm (Puccinia recondita): 100% | pest or weed control at 100 ppm (Phytophthora infestans): 0% | pest or weed control at 100 ppm (Plasmorpara viticola): 0% | pest or weed control at 5000 g/ha (Pythium aphanadermatum): 0% | pest or weed control at 5000 g/ha (Rhizoctonia solani [5]): 0% | pest or weed control at 5000 g/ha (Sclerotium rolfsii): 0% | MIC [6]: 0.03 µg/mL (≈ 0.0873 µM) | MIC [7]: 0.05 µg/mL (≈ 0.145 µM)

C=C(c1ccc(Cl)cc1Cl)C(O)(Cn1cncn1)c1ccc(Cl)cc1 (stereo not shown) [Example 101]
responders at 150 mg/kg ([1]; ATCC11651, 168 h, day 7): 100% | responders at 150 mg/kg ([1]; ATCC11651, 336 h, day 14): 90% | responders at 150 mg/kg ([1]; ATCC11651, 504 h, day 21): 60% | pest or weed control at 100 ppm (Venturia inaequalis): 100% | pest or weed control at 100 ppm [2]: 100% | pest or weed control at 100 ppm (Botrytis cinerea): 94% | pest or weed control at 100 ppm [3]: 83% | pest or weed control at 100 ppm (Pyricularia oryzae): 0% | pest or weed control at 100 ppm (Rhizoctonia solani [4]): 80% | pest or weed control at 100 ppm (Puccinia recondita): 100% | pest or weed control at 100 ppm (Phytophthora infestans): 0% | pest or weed control at 100 ppm (Plasmorpara viticola): 100% | pest or weed control at 5000 g/ha (Pythium aphanadermatum): 0% | pest or weed control at 5000 g/ha (Rhizoctonia solani [5]): 0% | pest or weed control at 5000 g/ha (Sclerotium rolfsii): 0% | MIC [6]: 0.03 µg/mL (≈ 0.076 µM) | MIC [7]: 12.5 µg/mL (≈ 31.7 µM)

C=C(c1ccccc1Cl)C(O)(Cn1cncn1)c1ccccc1Cl (stereo not shown) [Example 622]
responders at 150 mg/kg ([1]; ATCC11651, 168 h, day 7): 100% | responders at 150 mg/kg ([1]; ATCC11651, 336 h, day 14): 100% | responders at 150 mg/kg ([1]; ATCC11651, 504 h, day 21): 100% | pest or weed control at 100 ppm (Venturia inaequalis): 100% | pest or weed control at 100 ppm [2]: 100% | pest or weed control at 100 ppm (Botrytis cinerea): 84% | pest or weed control at 100 ppm [3]: 99% | pest or weed control at 100 ppm (Pyricularia oryzae): 0% | pest or weed control at 100 ppm (Rhizoctonia solani [4]): 100% | pest or weed control at 100 ppm (Puccinia recondita): 100% | pest or weed control at 100 ppm (Phytophthora infestans): 0% | pest or weed control at 100 ppm (Plasmorpara viticola): 26% | pest or weed control at 5000 g/ha (Pythium aphanadermatum): 0% | pest or weed control at 5000 g/ha (Rhizoctonia solani [5]): 0% | pest or weed control at 5000 g/ha (Sclerotium rolfsii): 0% | MIC [6]: 0.03 µg/mL (≈ 0.0833 µM) | MIC [7]: 0.1 µg/mL (≈ 0.278 µM)
